Test system: K24384-001-R-PDC complex spheroid growth
Assay: Anticancer human tumor K24384-001-R-PDC patient-derived pancreatic adenocarcinoma cell line growth inhibition [AhR]
Details: for IC50: curve of first compound; for viability, T/C: stronger effect = lower value
Summary of the method: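 Agents were dosed in half-log steps down from roughly clinical Cmax, or from 10 microM where Cmax was unknown, alone and with AhR antagonists. Read-out: percent test/control growth of tumor spheroids containing HUVEC and MSC stromal cells.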

[1] = second compound 0.1 µM, first compound 0.0316 µM
[2] = second compound 0.1 µM, first compound 0.1 µM
[3] = second compound 0.1 µM, first compound 0.316 µM
[4] = second compound 0.1 µM, first compound 1 µM
[5] = second compound 0.1 µM, first compound 3.16 µM
[6] = second compound 0.1 µM, first compound 10 µM
[7] = second compound 0.316 µM, first compound 0.0316 µM
[8] = second compound 0.316 µM, first compound 0.1 µM
[9] = second compound 0.316 µM, first compound 0.316 µM
[10] = second compound 0.316 µM, first compound 1 µM
[11] = second compound 0.316 µM, first compound 3.16 µM
[12] = second compound 0.316 µM, first compound 10 µM
[13] = second compound 1 µM, first compound 0.0316 µM
[14] = second compound 1 µM, first compound 0.1 µM
[15] = second compound 1 µM, first compound 0.316 µM
[16] = second compound 1 µM, first compound 1 µM
[17] = second compound 1 µM, first compound 3.16 µM
[18] = second compound 1 µM, first compound 10 µM
[19] = second compound 3.16 µM, first compound 0.0316 µM
[20] = second compound 3.16 µM, first compound 0.1 µM
[21] = second compound 3.16 µM, first compound 0.316 µM
[22] = second compound 3.16 µM, first compound 1 µM
[23] = second compound 3.16 µM, first compound 3.16 µM
[24] = second compound 3.16 µM, first compound 10 µM
[25] = second compound 10 µM, first compound 0.0316 µM
[26] = second compound 10 µM, first compound 0.1 µM
[27] = second compound 10 µM, first compound 0.316 µM
[28] = second compound 10 µM, first compound 1 µM
[29] = second compound 10 µM, first compound 3.16 µM
[30] = second compound 10 µM, first compound 10 µM
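Throughout, for viability, T/C: percent of DMSO vehicle-treated spheroid viability set as 100%.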

CC1COCCN1c1cc(C2(S(C)(=N)=O)CC2)nc(-c2ccnc3[nH]ccc23)n1 (stereo not given) + Cc1ccccc1N=Nc1ccc(NC(=O)c2ccnn2C)c(C)c1
IC50 (second compound 0.1 µM): 2100 nM
IC50 (second compound 0.316 µM): 2360 nM
IC50 (second compound 1 µM): 2140 nM
IC50 (second compound 3.16 µM): 1550 nM
IC50 (second compound 10 µM): 2750 nM
viability, T/C [1]: 102%
viability, T/C [2]: 126%
viability, T/C [3]: 105%
viability, T/C [4]: 70.1%
viability, T/C [5]: 38.7%
viability, T/C [6]: 35.5%
viability, T/C [7]: 111%
viability, T/C [8]: 115%
viability, T/C [9]: 97.2%
viability, T/C [10]: 76.2%
viability, T/C [11]: 39.5%
viability, T/C [12]: 30.9%
viability, T/C [13]: 95.2%
viability, T/C [14]: 106%
viability, T/C [15]: 90.5%
viability, T/C [16]: 71.6%
viability, T/C [17]: 38.8%
viability, T/C [18]: 29.2%
viability, T/C [19]: 76.4%
viability, T/C [20]: 116%
viability, T/C [21]: 95.8%
viability, T/C [22]: 60.4%
viability, T/C [23]: 35.5%
viability, T/C [24]: 27.4%
viability, T/C [25]: 109%
viability, T/C [26]: 97.1%
viability, T/C [27]: 98.5%
viability, T/C [28]: 75.8%
viability, T/C [29]: 45.8%
viability, T/C [30]: 38.2%

COc1ccc([C@@H](O)c2cc(-c3ncnc4cc(N5CCOCC5)ccc34)c(F)cc2Cl)nn1 + Cc1ccccc1N=Nc1ccc(NC(=O)c2ccnn2C)c(C)c1
IC50 (second compound 0.1 µM): 5910 nM
IC50 (second compound 0.316 µM): 4850 nM
IC50 (second compound 1 µM): 3610 nM
IC50 (second compound 3.16 µM): 2540 nM
IC50 (second compound 10 µM): 3680 nM
viability, T/C [1]: 99.7%
viability, T/C [2]: 99%
viability, T/C [3]: 82.2%
viability, T/C [4]: 66.7%
viability, T/C [5]: 62.5%
viability, T/C [6]: 42.1%
viability, T/C [7]: 99.3%
viability, T/C [8]: 90.5%
viability, T/C [9]: 80.4%
viability, T/C [10]: 82%
viability, T/C [11]: 53.8%
viability, T/C [12]: 37.2%
viability, T/C [13]: 96.1%
viability, T/C [14]: 95.7%
viability, T/C [15]: 86.1%
viability, T/C [16]: 70.8%
viability, T/C [17]: 51.9%
viability, T/C [18]: 37.8%
viability, T/C [19]: 99.9%
viability, T/C [20]: 96.6%
viability, T/C [21]: 81%
viability, T/C [22]: 64.2%
viability, T/C [23]: 47.2%
viability, T/C [24]: 34.9%
viability, T/C [25]: 97%
viability, T/C [26]: 103%
viability, T/C [27]: 82.5%
viability, T/C [28]: 78.7%
viability, T/C [29]: 50.9%
viability, T/C [30]: 32.7%

O=C(C=Cn1cnc(-c2cc(C(F)(F)F)cc(C(F)(F)F)c2)n1)NNc1cnccn1 + Cc1ccccc1N=Nc1ccc(NC(=O)c2ccnn2C)c(C)c1
IC50 (second compound 0.1 µM): 238 nM
IC50 (second compound 0.316 µM): 144 nM
IC50 (second compound 1 µM): 158 nM
IC50 (second compound 3.16 µM): 149 nM
IC50 (second compound 10 µM): 132 nM
viability, T/C (second compound 0.1 µM, first compound 0.00949 µM): 101%
viability, T/C (second compound 0.1 µM, first compound 0.03 µM): 104%
viability, T/C (second compound 0.1 µM, first compound 0.0949 µM): 68.2%
viability, T/C (second compound 0.1 µM, first compound 0.3 µM): 47.9%
viability, T/C (second compound 0.1 µM, first compound 0.949 µM): 27.1%
viability, T/C (second compound 0.1 µM, first compound 3 µM): 22.9%
viability, T/C (second compound 0.316 µM, first compound 0.00949 µM): 88%
viability, T/C (second compound 0.316 µM, first compound 0.03 µM): 106%
viability, T/C (second compound 0.316 µM, first compound 0.0949 µM): 62.3%
viability, T/C (second compound 0.316 µM, first compound 0.3 µM): 32.6%
viability, T/C (second compound 0.316 µM, first compound 0.949 µM): 30.2%
viability, T/C (second compound 0.316 µM, first compound 3 µM): 22.1%
viability, T/C (second compound 1 µM, first compound 0.00949 µM): 97.4%
viability, T/C (second compound 1 µM, first compound 0.03 µM): 89%
viability, T/C (second compound 1 µM, first compound 0.0949 µM): 62.3%
viability, T/C (second compound 1 µM, first compound 0.3 µM): 34.2%
viability, T/C (second compound 1 µM, first compound 0.949 µM): 26.5%
viability, T/C (second compound 1 µM, first compound 3 µM): 23%
viability, T/C (second compound 3.16 µM, first compound 0.00949 µM): 76.9%
viability, T/C (second compound 3.16 µM, first compound 0.03 µM): 77.6%
viability, T/C (second compound 3.16 µM, first compound 0.0949 µM): 59.3%
viability, T/C (second compound 3.16 µM, first compound 0.3 µM): 34%
viability, T/C (second compound 3.16 µM, first compound 0.949 µM): 27.9%
viability, T/C (second compound 3.16 µM, first compound 3 µM): 19.7%
viability, T/C (second compound 10 µM, first compound 0.00949 µM): 86.3%
viability, T/C (second compound 10 µM, first compound 0.03 µM): 79.4%
viability, T/C (second compound 10 µM, first compound 0.0949 µM): 57.5%
viability, T/C (second compound 10 µM, first compound 0.3 µM): 31.4%
viability, T/C (second compound 10 µM, first compound 0.949 µM): 32.9%
viability, T/C (second compound 10 µM, first compound 3 µM): 25.8%
